Data from patent publication US20230302022A1, “PREVENTING OR MITIGATING CHEMOTHERAPY INDUCED ALOPECIA USING VITAMIN D” (priority 2016, published 2023).
“Also recorded” adds a separate entry of the source.

Legend:
BALB/c mice = details: cited from earlier work
[1] = system: MIAC51 (chloroleukemia cells); assay: Chloroleukemia (MIAC51) in rats: cure / survival under chemotherapy with topical calcitriol; format: in vivo, rat
Description: For experiments in which rats were transplanted with chloroleukemia, on Day 5 after birth, rats were randomly divided into three groups of 45 each. All rats received 1×10^5 chloroleukemic cell line MIAC51 (i.p.) in 0.1 mL of serum free (SF) RPMI. MIAC51 were cultured in RPMI 1640 supplemented with L-glutamine and 10% fetal bovine serum at 37° C. in a 5% CO2, 100% humidity incubator. Cells were grown to 50% confluency (1.5×106 mL) collected in 50 mL conical tubes, centrifuged at 600 g×10 min. at room temperature and resuspended in SF-RPMI at a concentration of 1×10^6/mL. Group 1 rats received no further treatment. Group 2 rats received topical vehicle and CTX on day 13. […] Topical applications were performed as described above.
On day 23 after birth, a sample of blood was taken from all rats and differentials performed. Rats with leukemia were sacrificed, rats without leukemia were kept and a second differential performed on day 31, at any point if leukemia was detected, animals were sacrificed by CO2 asphyxiation.
On day 5 after birth all rats received 1×105 MIAC51 intraperitoneally in 0.1 mL of serum free (SF) RPMI. MIAC51 were cultured in RPMI 1640 supplemented with L-glutamine and 10% fetal bovine serum at […] in a 5% CO2, 100% humidity incubator. Cells were grown to 50% confluency (1.5×106 mL) collected in 50 mL conical tubes, centrifuged at 600 g for 10 minutes at room temperature and resuspended in SF-RPMI at a concentration of 1×10^6/mL prior to injection.
[…]

Long Evans rats = assay: CIA in chloroleukemic Long Evans rats receiving multi-course chemotherapy; format: in vivo, rat; parameters: protection from CIA: concentration or dose not given beside the values; details: for protection from CIA: both cycles
[2] = system: EMT-6 murine breast tumor; details: topical pretreatment + cyclophosphamide vs either agent alone; cited from earlier work
C57BL/6 mice = details: cited from earlier work
NCI-ES-0808 = assay: Cell growth / viability assay, NCI-ES-0808; format: cell-based
Description: The drug treatment period was usually three days. At the end of the three days, the background OD of the 96-well plate was read at 280 nm, before 20 μL of the “Substrate Cell Titer 96 Aqueous One Solution Reagent” (Promega) was added to each well. […] The net OD increase was calculated by subtracting the pre-substrate OD reading. The impact of the drug on the cells was calculated by comparing the OD at different concentrations in relation to the OD of the control wells (without the drug). The results of the Net OD as a function of drug concentration was plotted and used to determine ED50 values.

[3] = system: PaCa2 (pancreatic carcinoma); assay: Cell growth / viability assay, PaCa2; format: cell-based
Description: The drug treatment period was usually three days. At the end of the three days, the background OD of the 96-well plate was read at 280 nm, before 20 μL of the “Substrate Cell Titer 96 Aqueous One Solution Reagent” (Promega) was added to each well. The plate was returned to the 37° C. incubator, and its OD at 490 nm was read each hour until an OD of approximately 1.5 was reached. The net OD increase was calculated by subtracting the pre-substrate OD reading.
The impact of the drug on the cells was calculated by comparing the OD at different concentrations in relation to the OD of the control wells (without the drug).
Then these pretreated cells were utilized to set up the cell based assay.

SMILES: C=C1/C(=C\C=C2/CCC[C@]3(C)[C@@H]([C@H](C)CCCC(C)(C)O)CC[C@@H]23)C[C@@H](O)C[C@@H]1O [Calcitriol, (5Z,7E)-9,10-secocholesta-5,7.10(19Hriene-1 a,33.25-triol]
- protective effect in tumor-bearing female mice (BALB/c mice; EMT-6, vs female mice without tumor and tumor-bearing males): more efficient protective effect
- protective effect in tumor-bearing male mice (BALB/c mice; EMT-6 tumor cells): diminished
- degree of CIA (BALB/c mice; male BALB/c mice, topical 5 days prior to cyclophosphamide): significantly reduced the degree of CIA in a dose-dependent manner
- apoptosis staining pattern vs unexposed mice (BALB/c mice; mouse, in vivo): no significant differences in apoptosis staining pattern
- Survival Rate, % ([1]; ADM, Paclitaxel and Etoposide, after Two Rounds): 80%
- Survival Rate, % ([1]; CTX and ADM, after Two Rounds): 50%
- Survival Rate, % ([1]; CTX, ADM and ARA-C, after Two Rounds): 78%
- Survival Rate, % ([1]; CTX, Paclitaxel and Etoposide, after Two Rounds): 83%
- Survival Rate, % ([1]; CTX, after Two Rounds of Chemotherapy): 25%
- protection of the cancer cells from chemotherapy (cyclophosphamide) ([1]; Long Evans rats injected with MIAC51, topical calcitriol): does not protect the cancer cells from chemotherapy; also recorded: have not shown protection; also recorded: not protecting the cancer cells
- effect on the cure rate associated with cyclophosphamide ([1]; chloroleukemia induced (MIAC51), calcitriol 1-3 μg/mL study): did not affect the cure rate
- interference with the cure rate ([1]; cyclophosphamide and doxorubicin group, cure rate 50-55%): did not interfere with the cure rate
- interference with the cure rate ([1]; cyclophosphamide group, cure rate 20-25%): did not interfere with the cure rate
- interference with the cure rate ([1]; cyclophosphamide, doxorubicin and cytarabine group, cure rate 75-80%): did not interfere with the cure rate
- interference with the cure rate ([1]; cyclophosphamide, paclitaxel and etoposide group, cure rate 78-83%): did not interfere with the cure rate
- interference with the cure rate ([1]; doxorubicin, paclitaxel and etoposide group, cure rate 80-83%): did not interfere with the cure rate
- effect on the efficacy of the chemotherapy agents ([1]; number of animals free from leukemia): did not affect the efficacy of the chemotherapy agents
- ALOPECIA 0 (number of rats) (Long Evans rats; ADM, Paclitaxel and Etoposide, after First Round): 40
- ALOPECIA 0 (number of rats) (Long Evans rats; ADM, Paclitaxel and Etoposide, after Second Round): 32
- ALOPECIA 0 (number of rats) (Long Evans rats; CTX and Doxorubicin (ADM), after First Round): 40
- ALOPECIA 0 (number of rats) (Long Evans rats; CTX and Doxorubicin (ADM), after Second Round): 20
- ALOPECIA 0 (number of rats) (Long Evans rats; CTX, ADM and Cytarabine (ARA-C), after First Round): 40
- ALOPECIA 0 (number of rats) (Long Evans rats; CTX, ADM and Cytarabine (ARA-C), after Second Round): 31
- ALOPECIA 0 (number of rats) (Long Evans rats; CTX, Paclitaxel and Etoposide, after First Round): 40
- ALOPECIA 0 (number of rats) (Long Evans rats; CTX, Paclitaxel and Etoposide, after Second Round): 33
- ALOPECIA 0 (number of rats) (Long Evans rats; Cyclophosphamide (CTX), after First Round of Chemotherapy): 40
- ALOPECIA 0 (number of rats) (Long Evans rats; Cyclophosphamide (CTX), after Second Round of Chemotherapy): 10
- protection from CIA (Long Evans rats; cyclophosphamide and doxorubicin group): 100%
- extent of alopecia (grade), all rats (Long Evans rats; cyclophosphamide and doxorubicin regimen, after the first round): did not exhibit any signs of alopecia
- protection from CIA (Long Evans rats; cyclophosphamide group): 100%
- extent of alopecia (grade), all rats (Long Evans rats; cyclophosphamide regimen, after the first round of chemotherapy): did not exhibit any signs of alopecia
- protection from CIA (Long Evans rats; cyclophosphamide, doxorubicin and cytarabine group): 100%
- extent of alopecia (grade), all rats (Long Evans rats; cyclophosphamide, doxorubicin and cytarabine regimen, after the first round): did not exhibit any signs of alopecia
- protection from CIA (Long Evans rats; cyclophosphamide, paclitaxel and etoposide group): 100%
- extent of alopecia (grade), all rats (Long Evans rats; cyclophosphamide, paclitaxel and etoposide regimen, after the first round): did not exhibit any signs of alopecia
- protection from CIA (Long Evans rats; doxorubicin, paclitaxel and etoposide group): 100%
- extent of alopecia (grade), all rats (Long Evans rats; doxorubicin, paclitaxel and etoposide regimen, after the first round): did not exhibit any signs of alopecia
- rate of tumor growth [2]: greater reduction in the rate of tumor growth
- follicular apoptosis induced by cyclophosphamide (C57BL/6 mice; C57BL/6 mice, topical): significantly diminish the degree of follicular apoptosis
- prevention of cyclophosphamide-induced alopecia (C57BL/6 mice; female C57BL/6 adolescent mice): failed to demonstrate efficacy
- regrowth of pigmented hair shafts (C57BL/6 mice; female C57BL/6 adolescent mice): significantly accelerated, enhanced, and quantitatively improved
- effect of calcitriol on cell growth (NCI-ES-0808): no significant growth promoting or growth inhibiting effects
- effect of calcitriol on the cytotoxic effect of Doxorubicin (NCI-ES-0808): did not appear to appreciably alter
- effect of calcitriol on cell growth ([3]; PaCa2, wide range of calcitriol concentrations): no significant growth promoting or growth inhibiting effects; also recorded: not responsive
- effect of calcitriol on the cytotoxic effect of Doxorubicin ([3]; PaCa-2): did not appear to appreciably alter
- 5-FU ED50 curve with vs without calcitriol ([3]; PaCa-2, 0.1 μg/mL calcitriol): not significantly different
- response to doxorubicin, cisplatin and erlotinib after calcitriol exposure ([3]; PaCa-2, 0.1 μg/mL calcitriol for two passages): did not alter
